Assay results published in US20250049930A1, “PROTAC MOLECULES TARGETING FOXP3 AND USES THEREOF” (CEDARS-SINAI MEDICAL CENTER, priority 2022, published 2025).
“Also recorded” adds a separate entry of the source. No end group written: not given here.

System: RENCA tumors
Experiment: Subcutaneous RENCA tumor growth in mice
Assay type: in vivo
Conditions: s.c. RENCA in Balb/C mice, i.p. treatment from day 10, vs saline
Experimental: Mice: Balb/C mice, 5-8 weeks old, were purchased from Jackson laboratory (Ellsworth, Maine) and housed under pathogen free conditions. All experiments involving animals followed federal and state standards, which include the federal Animal Welfare Act and the NIH guide for the care and use of laboratory animals. The RENCA tumors were generated by subcutaneously injecting 2×10^5 tumor cells into the frank. The day tumor cells were injected was considered day 0. PF (0.1 mmol), PC (0.1 mmol) or P60 (100 ug) was administered i.p. twice a week starting on day 10; αPD1 (200 μg) was administered i.p. twice a week starting on day 5; temsirolimus (15 μg) was administered i.p. every other day, starting on day 10. All drugs were administered throughout the experimental course unless indicated. CD8 cells were depleted with a one-time αCD8 (200 μg) i.p. administration on day 2.
In cancer, Tregs can suppress the antitumor immune response, which is primarily mediated by CD8+ lymphocytes. Therefore, PF was administered to mice to enhance antitumor immunity and suppress growth of syngeneic mouse kidney cancer, which is considered an immunoresponsive cancer type. Mice tumors were established by injecting RENCA cells subcutaneously in the flank of Balb/C mice (5-7 mice per group). RENCA cells were injected subcutaneously to establish palpable tumors, and 10 days later mice were treated i.p., twice a week throughout the experiment, with PF, PC, P60 or Saline (FIG. 3D). Pomalidomide conjugated to (PEG)4 (PROTAC-control; PC) and P60 served as controls. […] In summary, PF decreased the immunosuppressive function of Tregs in vitro and decreased tumor growth in mice. […]
All immunotherapies, particularly when multi-drug combinations are involved, may have off-target effects. For example, drugs may have direct effects on the tumor, inhibiting tumor proliferation or inducing tumor apoptosis. Mice tumors were established by injecting RENCA cell subcutaneously in the flank of Balb/C mice (6-8 mice per group). 10 days later, mice were treated with PF twice per week. CD8 lymphocytes were depleted with αCD8 administered i.p. 2 days after injection of tumor cells. Mice in indicated groups received i.p. αPD1, twice a week, starting day 5 (FIG. 5A). Mice in indicated groups received i.p. temsirolimus every other day for 14 days, starting on days 10 (FIG. 5B). Tumor growth was monitored in these groups. […]

## CO[C@H]1C[C@@H]2CC[C@@H](C)[C@@](O)(O2)C(=O)C(=O)N2CCCC[C@H]2C(=O)O[C@H]([C@H](C)C[C@@H]2CC[C@@H](OC(=O)C(C)(CO)CO)[C@H](OC)C2)CC(=O)[C@H](C)/C=C(\C)[C@@H](O)[C@@H](OC)C(=O)[C@H](C)C[C@H](C)/C=C/C=C/C=C/1C [temsirolimus]
  tumor growth, single agent: suppressed tumor growth

## RDFQSFRKMWPFFAM (not fully specified (some residues)) [P60]
  tumor growth, single agent: Only PF produced a decrease in tumor growth; also recorded: no effect on RENCA tumor growth
